# Data: PMC11662004 (Communications Chemistry, 2024)
# pIC50: −log10 of the molar value. Several values for one entry are separate records, joined by “and”; a condition that tells them apart may be missing. Identical values can stand only once.
# Columns and labels:
# TET2CDΔLCI = experiment: Continuous reaction monitoring (1H NMR), 2OG decarboxylation; format: biochemical, human; conditions: Supp Fig 10 a
# Procedure: Double-stranded DNA oligomers were added at a final concentration of 20 µM. Data plotted from two independent replicates (n = 2). Initial rates reported as the mean of two independent replicates (n = 2). TEXT PRINTED IN THE PICTURE: (c) No DNA: V0 (μM min^−1) NgTet1: 0.36; V0 (μM min^−1) TET2: 1.28; Relative V0 NgTet1: 1; Relative V0 TET2: 1 | (c) ^5HC DNA: V0 (μM min^−1) NgTet1: 1.30; V0 (μM min^−1) TET2: 6.34; Relative V0 NgTet1: 3.6; Relative V0 TET2: 5.0 | (c) AT DNA: V0 (μM min^−1) NgTet1: 0.82; V0 (μM min^−1) TET2: 5.78; Relative V0 NgTet1: 2.3; Relative V0 TET2: 4.5 | (c) ^5mC DNA: V0 (μM min^−1) NgTet1: 1.52; V0 (μM min^−1) TET2: 6.79; Relative V0 NgTet1: 4.2; Relative V0 TET2: 5.3
# All ^1H NMR spectra were recorded at 25 °C using D2O as a reference for internal deuterium lock on a Bruker Avance III 700 MHz equipped with an inverse TCI cryoprobe in 3 or 5 mm diameter tubes with a total sample volume of 160 or 565 μL, respectively. The water signal was reduced using Perfect Echo excitation sculpting suppression. Chemical shifts are reported in ppm relative to D2O (δH = 4.70 ppm).
# Spectrometer settings were determined using a control sample containing all reaction components excluding enzyme. TET enzyme was added to an identical sample, and the resulting assay mixture was transferred to an NMR tube before deposition into the instrument. […] Data acquisition was started following a brief spectrometer setting optimisation (up to 200 s delay between enzyme addition and data acquisition); 8–32 scans were accumulated for a single spectrum, corresponding to 65–179 s of acquisition time. Spectrum recordings were carried out consecutively without delay. Data were processed using automated routines on MestReNova v14.2.0; signals of interest were integrated with absolute intensity scaling. ^1H NMR time courses reported in figures are representative results from two or three independent replicates.
# NgTet1 [1] = target: T1, NgTet1 (Naegleria gruberi, UniProt D2W6T1); experiment: End-point analysis for tandem activity detection (SPE-MS); format: biochemical; conditions: 5 µM NgTet1, 20 µM DNA, SPE-MS (Fig. S4)
# T1 construct: His6-tagged full-length Naegleria gruberi NgTet1 (321 a. a.) protein with a thrombin cleavage site; made in house; host or cells: E. coli BL21(DE3)
# T1 sequence (D2W6T1 1-321): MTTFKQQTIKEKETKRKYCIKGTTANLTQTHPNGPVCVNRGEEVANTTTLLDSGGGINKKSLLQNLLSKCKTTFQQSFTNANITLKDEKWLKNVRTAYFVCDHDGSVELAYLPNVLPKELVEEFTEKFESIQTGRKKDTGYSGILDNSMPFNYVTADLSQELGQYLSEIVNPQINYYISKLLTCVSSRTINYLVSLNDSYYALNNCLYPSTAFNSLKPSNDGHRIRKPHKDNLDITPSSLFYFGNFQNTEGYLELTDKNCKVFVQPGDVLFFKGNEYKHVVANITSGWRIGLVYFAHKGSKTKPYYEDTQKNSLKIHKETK
# Procedure: SPE-MS spectra were recorded on an Agilent RapidFire 365 High-throughput Mass Spectrometry system coupled to an Agilent 6550 iFunnel Q-TOF mass spectrometer following reported procedures[33],[34]. A RapidFire C4 (type A) solid-phase extraction (SPE) cartridge (Agilent, Cat#: G9203A) was used for analyte separation. A binary solvent system was used. Solvent A: 6 mM octylammonium acetate (prepared as described previously)[45] in H2O; solvent B: 80% v/v MeCN in H2O. Samples were aspirated into the sample loop using vacuum (40 μL) from a 96/384-well plate and loaded directly onto the SPE cartridge. The cartridge was washed with solvent A (4,000 ms, 1.5 mL min^−1), and the analyte was eluted with solvent B (4000 ms; 1.25 mL min^−1) onto the Q-TOF MS. Following each sample injection, the SPE cartridge was flushed with 3–6 cycles of H2O and MeCN to remove residual analyte before re-equilibration into solvent A. Q-TOF settings for DNA oligomer analysis were as follows: drying gas temperature: 280 °C; drying gas flow: 13 L min^−1; nebuliser gas pressure: 40 psig; sheath gas temperature: 350 °C; sheath gas flow: 12 L min^−1; capillary voltage (Vcap): 4000 V; nozzle voltage: 0 V; fragmentor voltage: 250 V; spectrum acquisition rate: 5 Hz. Data was processed using Agilent MassHunter Qualitative Analysis™ (B.07.00) and RapidFire Integrator software.
# The samples were analysed by SPE-MS. […]
# NgTet1 [2] = target: T1, NgTet1; experiment: biochemical; conditions: for normalised activity, %: AlphaScreen
# Procedure: (Fig. 5a), were screened for inhibitory activity against NgTet1.
# Activity was normalised against reactions containing vehicle (DMSO). […] AS data shown as the mean of three experimental replicates (n = 3; mean ± SD); ^1H NMR data plotted from two independent replicates (n = 2); tabulated data reported as the mean of two and three independent replicates for ^1H NMR and AS, respectively (n = 2–3, SD reported for n = 3). N. d.: not determined; AS: AlphaScreen.
# Compounds in DMSO (100 nL) were pre-dispensed in a logarithmically linear concentration gradient onto 384-well ProxiPlates using an Echo® 550 acoustic liquid handler (Labcyte). NgTet1 was pre-incubated with the inhibitor dilution series in DMSO at room temperature for 10 min. Reactions were initiated by the addition of appropriate cofactors and DNA. […] The reactions were quenched by the addition of 30 mM EDTA (pH 4.2), 358 mM NaCl (5 μL) within the enzyme linear activity window (determined in Fig. S10). Concurrently, a mixture containing the anti-^5hmC antibody (1:2000 dilution) and AlphaScreen beads (1:62.5 dilution) in assay buffer was prepared and incubated at room temperature for 30 min. The AlphaScreen bead/antibody mixture was added to the quenched NgTet1 reactions (5 μL), and the complete mixture was incubated at room temperature for 1 h. Chemiluminescence was measured on a PHERAstar FS/FSX (BMG Labtech) equipped with an AlphaScreen 680 570 module. All AlphaScreen bead manipulations were performed under subdued lighting. Inhibition data was normalised to reactions containing vehicle only (1% v/v DMSO) and fitted using “log(inhibitor) vs. response—Variable slope (four parameters)” non-linear regression model on GraphPad Prism 5.
Compound,succinate (TET2CDΔLCI; Time 0 min),succinate (TET2CDΔLCI; Time 2.5 min),succinate (TET2CDΔLCI; Time 5 min),succinate (TET2CDΔLCI; Time 7.5 min),succinate (TET2CDΔLCI; Time 10 min),succinate (TET2CDΔLCI; Time 15 min),succinate (TET2CDΔLCI; Time 20 min),enzymatic oxidation by NgTet1 (NgTet1 [1]),"normalised activity, % (NgTet1 [2]; -Log[inhibitor] (M) 3.30535)","normalised activity, % (NgTet1 [2]; -Log[inhibitor] (M) 3.82823)","normalised activity, % (NgTet1 [2]; -Log[inhibitor] (M) 4.30535)","normalised activity, % (NgTet1 [2]; -Log[inhibitor] (M) 4.90741)","normalised activity, % (NgTet1 [2]; -Log[inhibitor] (M) 5.39553)","normalised activity, % (NgTet1 [2]; -Log[inhibitor] (M) 5.91841)","normalised activity, % (NgTet1 [2]; -Log[inhibitor] (M) 6.39553)","normalised activity, % (NgTet1 [2]; -Log[inhibitor] (M) 6.99759)","normalised activity, % (NgTet1 [2]; -Log[inhibitor] (M) 7.50947)","normalised activity, % (NgTet1 [2]; -Log[inhibitor] (M) 8.03235)","pIC50 (NgTet1 [2]; read-out: IC50, 5mC ssDNA, AS)"
"5HC DNA: non-methylated DNA of the same sequence, 5'-ACC ACC GGT GGT-3', non-substrate (DNA ACCACCGGTGGT; DNA, backbone not given here)",2.2 µM,3.9 µM,6.5 µM,9.5 µM,12.4 µM,17.3 µM,21.5 µM,did not undergo enzymatic oxidation,–,–,–,–,–,–,–,–,–,–,–
"O=C(O)CNC(=O)C(=O)O [NOG, N-oxalylglycine]",–,–,–,–,–,–,–,–,27.0589% and 23.4073% and 23.5938%,54.6166% and 46.9965% and 50.3704%,72.1146% and 66.2321% and 78.0488%,90.0386% and 80.363% and 83.4878%,101.245% and 102.244% and 89.2336%,103.288% and 99.259% and 97.2201%,114.516% and 95.8112% and 105.039%,113.992% and 95.1834% and 95.7883%,110.682% and 100% and 109.028%,108.192% and 91.8591% and 90.7491%,3.70
